Assay results as given in patent US7662810B2, “2-arylmethylazetidine carbapenem derivatives and preparation thereof” (Korea Research Institute of Chemical Technology, priority 2004, dated 2010).
Values after ≈ are worked out from the molar mass of the structure shown. Read-outs that look alike come from different tables or passages of the source.

Legend:
[1] = test system: Enterobacter cloacae 1321 E; assay: Measurement of Minimum Inhibitory Concentration (MIC); format: cell-based
Summary of the method: (§1)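 Agar dilution on Müller-Hinton plates carrying serial twofold dilutions of compound (final 0.002–100 μg/ml), spotted with about 10^4 CFU/spot and incubated 18 h at 37 °C. Inocula came from 18 h shaken cultures in Fleisch extract broth, pH 7.4-7.5. MIC read after incubation.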

[2] = test system: Enterobacter cloacae P 99; assay: as above; format: cell-based
Summary of the method: as §1

Escherichia coli 078 = assay: as above; format: cell-based
Summary of the method: as §1

Escherichia coli 1507 E = assay: as above; format: cell-based
Summary of the method: as §1

Escherichia coli DC 0 = assay: as above; format: cell-based
Summary of the method: as §1

Escherichia coli DC 2 = assay: as above; format: cell-based
Summary of the method: as §1

Escherichia coli TEM = assay: as above; format: cell-based
Summary of the method: as §1

[3] = test system: Klebsiella aerogenes 1522 E; assay: as above; format: cell-based
Summary of the method: as §1

[4] = test system: Klebsiella oxytoca 1082 E; assay: as above; format: cell-based
Summary of the method: as §1

[5] = test system: Salmonella typhimurium 179; assay: as above; format: cell-based; details: Salmonella typhimurium 179
Summary of the method: as §1

[6] = test system: Staphylococcus aureus 285; assay: as above; format: cell-based
Summary of the method: as §1

[7] = test system: Staphylococcus aureus 503; assay: as above; format: cell-based
Summary of the method: as §1

[8] = test system: Staphylococcus faecium MD 8b; assay: as above; format: cell-based; details: Staphylococcus faecium MD 8b
Summary of the method: as §1

[9] = test system: Staphylococcus pyogenes 308A; assay: as above; format: cell-based; details: Staphylococcus pyogenes 308A
Summary of the method: as §1

[10] = test system: Staphylococcus pyogenes 77A; assay: as above; format: cell-based; details: Staphylococcus pyogenes 77A
Summary of the method: as §1

[11] = test system: Staphylococcus aureus 121E; assay: Measurement of Minimum Inhibitory Concentration (MIC), MRSA; format: cell-based
Summary of the method: as §1

[12] = test system: Staphylococcus aureus 208E; assay: as above; format: cell-based; details: Staphylococcus aureus 208E
Summary of the method: as §1

[13] = test system: Staphylococcus aureus 256E; assay: as above; format: cell-based; details: Staphylococcus aureus 256E
Summary of the method: as §1

[14] = test system: Staphylococcus aureus 690E; assay: as above; format: cell-based; details: Staphylococcus aureus 690E
Summary of the method: as §1

[15] = test system: Staphylococcus aureus 692E; assay: as above; format: cell-based; details: Staphylococcus aureus 692E
Summary of the method: as §1

[16] = test system: Staphylococcus aureus 693E; assay: as above; format: cell-based; details: Staphylococcus aureus 693E
Summary of the method: as §1

[17] = test system: Staphylococcus aureus 694E; assay: as above; format: cell-based; details: Staphylococcus aureus 694E
Summary of the method: as §1

[18] = test system: Staphylococcus aureus 695E; assay: as above; format: cell-based; details: Staphylococcus aureus 695E
Summary of the method: as §1

[19] = test system: Staphylococcus aureus 697E; assay: as above; format: cell-based; details: Staphylococcus aureus 697E
Summary of the method: as §1

[20] = test system: Staphylococcus aureus 88E; assay: as above; format: cell-based
Summary of the method: as §1

[21] = test system: Staphylococcus aureus 179; assay: Measurement of Minimum Inhibitory Concentration (MIC), QRS; format: cell-based
Summary of the method: as §1

[22] = test system: Staphylococcus aureus 241; assay: as above; format: cell-based
Summary of the method: as §1

[23] = test system: Staphylococcus aureus 293; assay: as above; format: cell-based; details: QRS, Staphylococcus aureus 293
Summary of the method: as §1

[24] = test system: Staphylococcus epidermidis 291; assay: as above; format: cell-based; details: QRS, Staphylococcus epidermidis 291
Summary of the method: as §1

[25] = Test of Pharmacokinetics in Animals (mice); format: in vivo; details: mouse, 40 mg/kg
Method: The pharmacokinetics of the carbapenem derivatives of the present invention was determined using mice. […] Standard antibiotic samples were prepared by serial two-fold dilution with control blood. […] PK (pharmacokinetic) change indicators (AUC, Tmax, Cmax and T1/2) of the test compound concentration remaining in the mouse blood over time were assayed over a set period.

[26] = Test of Pharmacokinetics in Animals (rats); format: in vivo; details: rat, 20 mg/kg
Method: The pharmacokinetics of the carbapenem derivatives of the present invention was determined using mice. Each of the compounds of Examples 13 and 14 and meropenem (a positive control) was dissolved in distilled water, and mice were orally administered (PO) or subcutaneously injected (SC) at a dosage of 40 mg/kg body weight (I.C.R mice, weighing 22 to 25 g, 4 mice/group). Blood samples were withdrawn from mice tails using heparinated capillaries at 10 min., 20 min., 30 min., 45 min., 1 hour, 2 hours, 3 hours and 4 hours after the administration.
Standard antibiotic samples were prepared by serial two-fold dilution with control blood. Agar plates were prepared with Müller-Hinton agar medium containing 6.7% sheep blood and 1% Streptococcus pyogenes 77A culture solution, and the diluted standard and blood samples were added to wells formed on the plates. The plate was stored at 4° C. for 1 hour to allow the sample to spread, and incubated at 37° C. for 18 hours. PK (pharmacokinetic) change indicators (AUC, Tmax, Cmax and T1/2) of the test compound concentration remaining in the mouse blood over time were assayed over a set period.
Then, pharmacokinetical assay (amount of medicament administered was 20 mg/kg) was carried out as above using rats.

[27] = Staphylococcus aureus, read-out: MIC

For `COc1ccc(CN2CC(SC3=C(C(=O)[O-])N4C(=O)[C@H]([C@@H](C)O)[C@H]4[C@H]3C)C2)cc1.[K+]` [Exam. 14, Potassium(1R,5S,6S)-2-[1-(4-methoxybenzyl)-azetidine-3-yl-thio]-6-[(1R)-1-hydroxylethyl]-1-methylcarbapen-2-em-3-carboxylate], the MIC [1] was 0.098 µg/mL, the MIC [2] was 0.391 µg/mL and the MIC (Escherichia coli 078) was 0.013 µg/mL. The MIC (Escherichia coli 1507 E) was 0.098 µg/mL, the MIC (Escherichia coli DC 0) was 0.049 µg/mL and the MIC (Escherichia coli DC 2) was 0.049 µg/mL. It also gave an MIC (Escherichia coli TEM; Escherichia coli TEM) of 0.195 µg/mL, an MIC [3] of 0.195 µg/mL and an MIC [4] of 0.098 µg/mL. For the same molecule, the MIC [5] was 0.098 µg/mL, the MIC [6] was 0.098 µg/mL and the MIC [7] was 0.025 µg/mL. It also gave an MIC [8] of 1.563 µg/mL, an MIC [9] of 0.002 µg/mL and an MIC [10] of 0.002 µg/mL. For the same molecule, the MIC ([11]; Staphylococcus aureus 121E) was 0.098 µg/mL, the MIC [12] was 0.049 µg/mL and the MIC [13] was 0.025 µg/mL. It also gave an MIC [14] of 0.391 µg/mL, an MIC [15] of 0.391 µg/mL and an MIC [16] of 0.391 µg/mL. The MIC [17] was 0.098 µg/mL, the MIC [18] was 0.098 µg/mL and the MIC [19] was 0.195 µg/mL. For the same molecule, the MIC ([20]; Staphylococcus aureus 88E) was 0.1951 µg/mL, the MIC ([21]; QRS, Staphylococcus aureus 179) was 0.049 µg/mL and the MIC ([22]; QRS, Staphylococcus aureus 241) was 0.049 µg/mL. The MIC [23] was 0.098 µg/mL, the MIC [24] was 0.391 µg/mL and the “AUC, times higher than meropenem” value ([25]; in vivo) was 10 to 12 times. For the same molecule, the “increase in T1/2 than meropenem” value ([25]; in vivo) was “more than 2 times”, the “AUC (area under blood-medicament concentration curve till 24 hours from administration)” value ([25]; in vivo, po) was 5200 ng·h/mL and the Cmax ([25]; in vivo, po) was 2070 ng/mL. For the same molecule, the “T1/2 (half time of blood-medicament concentration)” value ([25]; in vivo, po) was 124 min, the Tmax ([25]; in vivo, po) was 26.4 min and the “absorption through the oral route” value ([25]; in vivo, po) was “absorbed through the oral route to significant extents”. The “AUC (area under blood-medicament concentration curve till 24 hours from administration)” value ([25]; in vivo, sc) was 79660 ng·h/mL, the Cmax ([25]; in vivo, sc) was 69610 ng/mL and the “T1/2 (half time of blood-medicament concentration)” value ([25]; in vivo, sc) was 45.6 min. The Tmax ([25]; in vivo, sc) was 15 min, the “AUC, times higher than meropenem” value ([26]; in vivo) was 17 times and the “increase in T1/2 than meropenem” value ([26]; in vivo) was “more than 2 times”. The “AUC (area under blood-medicament concentration curve till 24 hours after administration)” value ([26]; in vivo, po) was 330 ng·h/mL, the Cmax ([26]; in vivo, po) was 200 ng/mL and the “T1/2 (half time of blood-medicament concentration)” value ([26]; in vivo, po) was 304 min. The Tmax ([26]; in vivo, po) was 42.6 min, the “absorption through the oral route” value ([26]; in vivo, po) was “absorbed through the oral route to a significant extent” and the “AUC (area under blood-medicament concentration curve till 24 hours after administration)” value ([26]; in vivo, sc) was 34580 ng·h/mL. For the same molecule, the Cmax ([26]; in vivo, sc) was 35850 ng/mL, the “T1/2 (half time of blood-medicament concentration)” value ([26]; in vivo, sc) was 41.4 min and the Tmax ([26]; in vivo, sc) was 22.2 min.
Molecule `C[C@@H](O)[C@H]1C(=O)N2C(C(=O)O)=C(S[C@@H]3CN[C@H](C(=O)N(C)C)C3)[C@H](C)[C@H]12` [Meropenem, reference compound] has an MIC ([1]; read-out: MIC) of 0.025 µg/mL (≈ 0.0652 µM), an MIC ([2]; P99, read-out: MIC) of 0.049 µg/mL (≈ 0.128 µM) and an MIC (Escherichia coli 078; read-out: MIC) of 0.025 µg/mL (≈ 0.0652 µM). The MIC (Escherichia coli 1507 E; read-out: MIC) was 0.025 µg/mL (≈ 0.0652 µM), the MIC (Escherichia coli DC 0; DC0, read-out: MIC) was 0.025 µg/mL (≈ 0.0652 µM) and the MIC (Escherichia coli DC 2) was 0.025 µg/mL (≈ 0.0652 µM). The MIC (Escherichia coli TEM; Escherichia coli) was 0.025 µg/mL (≈ 0.0652 µM), the MIC ([3]; read-out: MIC) was 0.049 µg/mL (≈ 0.128 µM) and the MIC ([4]; read-out: MIC) was 0.049 µg/mL (≈ 0.128 µM). The MIC ([5]; Salmonella enterica, read-out: MIC) was 0.049 µg/mL (≈ 0.128 µM), the MIC ([6]; read-out: MIC) was 0.098 µg/mL (≈ 0.256 µM) and the MIC ([7]; read-out: MIC) was 0.049 µg/mL (≈ 0.128 µM). The MIC ([8]; MD8B, read-out: MIC) was 6.25 µg/mL (≈ 16.3 µM), the MIC [9, 27] was 0.007 µg/mL (≈ 0.0183 µM) and the MIC [10, 27] was 0.004 µg/mL (≈ 0.0104 µM). The MIC ([11]; Staphylococcus aureus) was 0.195 µg/mL (≈ 0.509 µM), the MIC ([12]; read-out: MIC) was 0.098 µg/mL (≈ 0.256 µM) and the MIC ([13]; read-out: MIC) was 0.049 µg/mL (≈ 0.128 µM). It also gave an MIC ([14]; read-out: MIC) of 3.12 µg/mL (≈ 8.15 µM), an MIC ([15]; read-out: MIC) of 0.098 µg/mL (≈ 0.256 µM) and an MIC ([16]; read-out: MIC) of 6.25 µg/mL (≈ 16.3 µM). For the same molecule, the MIC ([17]; read-out: MIC) was 6.25 µg/mL (≈ 16.3 µM), the MIC ([18]; read-out: MIC) was 0.781 µg/mL (≈ 2.04 µM) and the MIC ([19]; read-out: MIC) was 0.098 µg/mL (≈ 0.256 µM). It also gave an MIC ([20]; Staphylococcus aureus) of 0.195 µg/mL (≈ 0.509 µM), an MIC ([21]; Staphylococcus aureus, 179) of 0.195 µg/mL (≈ 0.509 µM) and an MIC ([22]; Staphylococcus aureus, 241) of 0.195 µg/mL (≈ 0.509 µM). It also gave an MIC ([23]; read-out: MIC) of 0.781 µg/mL (≈ 2.04 µM), an MIC ([24]; read-out: MIC) of 1.56 µg/mL (≈ 4.08 µM) and an AUC ([25]; ICR, whole blood, mice, SC, read-out: AUC (area under blood-medicament concentration curve till 24 hours from administration)) of 7500 ng·h/mL. The Cmax ([25]; ICR, whole blood, mice, SC, read-out: Cmax) was 13400 ng/mL, the half-life ([25]; ICR, whole blood, mice, SC, read-out: T1/2 (half time of blood-medicament concentration) (converted)) was 25.8 min and the Tmax ([25]; ICR, whole blood, mice, SC, read-out: Tmax) was 19.8 min. The AUC ([26]; whole blood, rats, SC, read-out: AUC (area under blood-medicament concentration curve till 24 hours after administration)) was 2050 ng·h/mL, the Cmax ([26]; whole blood, rats, SC, read-out: Cmax) was 3920 ng/mL and the half-life ([26]; whole blood, rats, SC, read-out: T1/2 (half time of blood-medicament concentration) (converted)) was 18.6 min. For the same molecule, the Tmax ([26]; whole blood, rats, SC, read-out: Tmax) was 15 min.
